Experimental data from ChEMBL document CHEMBL5236568, “Discovery of 3,4-dihydropyrimido[4,5-d]pyrimidin-2(1H)-one and 3,4-dihydropyrido[2,3-d]pyrimidin-2(1H)-one derivatives as novel ENPP1 inhibitors” (Bioorg Med Chem Lett, 2022).

Assays:
[1] = biological target: T1, Ectonucleotide pyrophosphatase/phosphodiesterase family member 1 (Homo sapiens, UniProt P22413); assay: Inhibition of ENPP1 (unknown origin)
T1 sequence (P22413 whole entry): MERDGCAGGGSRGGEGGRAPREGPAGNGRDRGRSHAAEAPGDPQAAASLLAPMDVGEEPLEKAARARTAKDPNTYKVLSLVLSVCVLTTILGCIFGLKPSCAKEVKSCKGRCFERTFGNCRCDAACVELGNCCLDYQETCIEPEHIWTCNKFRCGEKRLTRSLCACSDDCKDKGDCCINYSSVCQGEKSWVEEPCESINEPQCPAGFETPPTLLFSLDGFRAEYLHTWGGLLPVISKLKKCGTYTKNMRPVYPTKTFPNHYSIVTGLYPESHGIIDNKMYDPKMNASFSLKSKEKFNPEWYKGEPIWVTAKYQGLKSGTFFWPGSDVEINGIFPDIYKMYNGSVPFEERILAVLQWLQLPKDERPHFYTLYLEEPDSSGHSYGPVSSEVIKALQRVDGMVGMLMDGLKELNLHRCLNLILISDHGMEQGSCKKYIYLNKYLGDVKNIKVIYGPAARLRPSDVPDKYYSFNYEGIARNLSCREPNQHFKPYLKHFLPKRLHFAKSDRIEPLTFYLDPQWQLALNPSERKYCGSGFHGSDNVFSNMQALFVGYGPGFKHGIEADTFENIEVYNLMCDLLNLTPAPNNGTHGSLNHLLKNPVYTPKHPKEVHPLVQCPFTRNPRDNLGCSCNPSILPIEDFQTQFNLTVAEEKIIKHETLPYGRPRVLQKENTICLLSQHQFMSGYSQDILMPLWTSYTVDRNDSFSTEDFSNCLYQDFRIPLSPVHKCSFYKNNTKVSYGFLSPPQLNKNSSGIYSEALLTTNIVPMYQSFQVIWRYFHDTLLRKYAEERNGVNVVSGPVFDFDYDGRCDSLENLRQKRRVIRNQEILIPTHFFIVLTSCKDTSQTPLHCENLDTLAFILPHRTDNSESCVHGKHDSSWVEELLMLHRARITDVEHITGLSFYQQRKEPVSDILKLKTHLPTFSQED

[2] = biological target: T2, Ectonucleotide pyrophosphatase/phosphodiesterase family member 1 (Homo sapiens) (UniProt P22413); assay: Inhibition of ENPP1 (unknown origin) at 10 uM relative to control
T2 sequence (whole entry): T1 sequence (P22413 whole entry)

CYP1A2 = biological target: T3, CYP1A2 (Homo sapiens, UniProt P05177); assay: Inhibition of CYP1A2 (unknown origin) assessed as remaining activity at 10 uM relative to control; assay type: ADME; conditions: read-out: Activity
T3 sequence (P05177 whole entry): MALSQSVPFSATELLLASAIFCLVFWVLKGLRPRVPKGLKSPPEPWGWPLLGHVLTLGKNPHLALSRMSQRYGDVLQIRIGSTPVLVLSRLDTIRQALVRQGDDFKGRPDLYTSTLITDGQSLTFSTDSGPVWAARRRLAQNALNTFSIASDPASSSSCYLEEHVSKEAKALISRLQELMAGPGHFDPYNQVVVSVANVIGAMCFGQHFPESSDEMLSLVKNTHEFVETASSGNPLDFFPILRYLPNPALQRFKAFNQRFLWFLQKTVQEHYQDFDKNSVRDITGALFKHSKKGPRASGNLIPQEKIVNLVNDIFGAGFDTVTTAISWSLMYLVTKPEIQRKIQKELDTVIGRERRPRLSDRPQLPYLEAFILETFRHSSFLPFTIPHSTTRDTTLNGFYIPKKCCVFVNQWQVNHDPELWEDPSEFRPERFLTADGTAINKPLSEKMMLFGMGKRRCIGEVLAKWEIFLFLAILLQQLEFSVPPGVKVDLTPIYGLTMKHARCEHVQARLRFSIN

[3] = Metabolic stability in rat liver microsomes assessed as compound remaining at 1 uM after 30 mins; assay type: ADME, Microsome; conditions: read-out: Stability
[4] = Metabolic stability in mouse liver microsomes assessed as compound remaining at 1 uM after 30 mins; assay type: ADME, Microsome; conditions: read-out: Stability
CYP2D6 = CYP2D6 (Homo sapiens, UniProt P10635); assay: Inhibition of CYP2D6 (unknown origin) assessed as remaining activity at 10 uM relative to control; assay type: ADME; conditions: read-out: Activity
[5] = Metabolic stability in human liver microsomes assessed as compound remaining at 1 uM after 30 mins; assay type: ADME, Microsome; conditions: read-out: Stability
CYP2C9 = CYP2C9 (Homo sapiens, UniProt P11712); assay: Inhibition of CYP2C9 (unknown origin) assessed as remaining activity at 10 uM relative to control; assay type: ADME; conditions: read-out: Activity
CYP3A4 = CYP3A4 (Homo sapiens, UniProt P08684); assay: Inhibition of CYP3A4 (unknown origin) assessed as remaining activity at 10 uM relative to control; assay type: ADME; conditions: read-out: Activity
CYP2C19 = CYP2C19 (Homo sapiens, UniProt P33261); assay: Inhibition of CYP2C19 (unknown origin) assessed as remaining activity at 10 uM relative to control; assay type: ADME; conditions: read-out: Activity
CYP2C19, sequence (P33261 whole entry): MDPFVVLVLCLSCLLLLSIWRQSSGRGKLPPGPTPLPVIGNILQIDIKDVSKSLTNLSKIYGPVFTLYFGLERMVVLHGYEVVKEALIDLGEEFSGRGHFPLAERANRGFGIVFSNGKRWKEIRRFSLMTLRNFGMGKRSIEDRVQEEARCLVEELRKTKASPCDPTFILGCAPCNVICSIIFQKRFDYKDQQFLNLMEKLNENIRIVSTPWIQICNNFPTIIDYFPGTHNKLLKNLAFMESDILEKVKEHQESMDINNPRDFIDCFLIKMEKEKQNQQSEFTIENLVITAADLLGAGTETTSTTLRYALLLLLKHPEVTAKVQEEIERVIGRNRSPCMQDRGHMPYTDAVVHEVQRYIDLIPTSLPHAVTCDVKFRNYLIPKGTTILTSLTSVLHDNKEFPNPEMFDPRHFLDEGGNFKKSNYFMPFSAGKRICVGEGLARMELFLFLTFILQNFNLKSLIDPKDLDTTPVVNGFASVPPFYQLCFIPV

CYP3A4, sequence (P08684 whole entry): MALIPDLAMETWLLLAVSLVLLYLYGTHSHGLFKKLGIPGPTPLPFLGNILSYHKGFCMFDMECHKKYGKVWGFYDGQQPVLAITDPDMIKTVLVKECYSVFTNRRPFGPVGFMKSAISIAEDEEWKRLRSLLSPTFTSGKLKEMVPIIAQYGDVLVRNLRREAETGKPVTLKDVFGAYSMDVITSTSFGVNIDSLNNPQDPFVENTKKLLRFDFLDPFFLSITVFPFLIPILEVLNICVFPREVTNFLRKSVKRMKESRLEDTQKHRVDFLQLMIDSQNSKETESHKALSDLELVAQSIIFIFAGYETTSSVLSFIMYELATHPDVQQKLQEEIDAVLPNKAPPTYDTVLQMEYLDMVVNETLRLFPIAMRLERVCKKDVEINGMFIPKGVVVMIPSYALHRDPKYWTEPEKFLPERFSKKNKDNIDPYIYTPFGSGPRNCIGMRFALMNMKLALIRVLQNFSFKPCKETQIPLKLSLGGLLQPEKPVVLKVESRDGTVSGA
CYP2C9, sequence (P11712 whole entry): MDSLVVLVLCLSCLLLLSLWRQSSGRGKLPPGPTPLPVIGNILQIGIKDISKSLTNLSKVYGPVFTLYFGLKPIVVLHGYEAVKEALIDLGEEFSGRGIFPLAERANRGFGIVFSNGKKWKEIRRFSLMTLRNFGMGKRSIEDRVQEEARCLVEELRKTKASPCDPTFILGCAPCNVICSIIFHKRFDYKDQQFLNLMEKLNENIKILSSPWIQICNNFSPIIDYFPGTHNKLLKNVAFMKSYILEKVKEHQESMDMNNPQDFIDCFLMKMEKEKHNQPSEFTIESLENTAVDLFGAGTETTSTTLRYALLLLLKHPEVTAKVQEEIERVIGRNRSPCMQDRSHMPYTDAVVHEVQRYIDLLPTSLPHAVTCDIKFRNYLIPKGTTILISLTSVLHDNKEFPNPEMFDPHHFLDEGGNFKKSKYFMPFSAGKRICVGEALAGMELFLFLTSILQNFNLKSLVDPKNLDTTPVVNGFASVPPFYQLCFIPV
CYP2D6, sequence (P10635 whole entry): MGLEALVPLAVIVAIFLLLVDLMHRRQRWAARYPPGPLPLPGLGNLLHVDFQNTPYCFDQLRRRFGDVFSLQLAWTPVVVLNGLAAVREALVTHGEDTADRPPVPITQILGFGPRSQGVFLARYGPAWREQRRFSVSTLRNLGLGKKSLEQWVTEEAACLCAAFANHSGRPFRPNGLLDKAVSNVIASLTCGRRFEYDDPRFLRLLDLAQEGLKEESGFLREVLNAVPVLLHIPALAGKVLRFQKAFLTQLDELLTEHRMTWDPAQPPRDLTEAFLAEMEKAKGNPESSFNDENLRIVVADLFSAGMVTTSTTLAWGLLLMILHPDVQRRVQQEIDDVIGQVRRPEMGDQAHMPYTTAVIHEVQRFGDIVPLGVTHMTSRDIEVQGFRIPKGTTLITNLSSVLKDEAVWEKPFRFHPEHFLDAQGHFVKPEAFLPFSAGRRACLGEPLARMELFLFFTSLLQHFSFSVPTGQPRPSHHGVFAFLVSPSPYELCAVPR

CN1Cc2c(-c3ccc(CN(C)S(N)(=O)=O)cc3)ccnc2NC1=O
IC50 [1]: 1160 nM
inhibition [2]: 80%

NS(=O)(=O)Nc1cccc(-c2ccnc3c2CN(C2CC2)C(=O)N3)c1
IC50 [1]: 7460 nM
inhibition [2]: 62%

CN1Cc2c(ncnc2N2CCC(C)(CCNS(N)(=O)=O)CC2)NC1=O
IC50 [1]: 669 nM
inhibition [2]: 93%

CN1Cc2c(ncnc2Nc2ccc(NS(N)(=O)=O)cc2)NC1=O
inhibition [2]: 67%

CN1Cc2c(ncnc2N2CCC(CNS(N)(=O)=O)CC2)NC1=O
IC50 [1]: 48 nM
inhibition [2]: 100%

CN1Cc2c(-c3cccc(NS(N)(=O)=O)c3)ccnc2NC1=O
IC50 [1]: 766 nM
inhibition [2]: 95%

NS(=O)(=O)NCc1ccc(-c2ccnc3c2CN(C2CC2)C(=O)N3)cc1
inhibition [2]: 35%

CN1Cc2c(ncnc2-c2ccc(CNS(N)(=O)=O)c(F)c2)NC1=O
IC50 [1]: 916 nM
inhibition [2]: 96%

Cc1ccc(S(=O)(=O)NCc2cccc(-c3ncnc4c3CN(C)C(=O)N4)c2)cc1
inhibition [2]: 68%

CN1Cc2c(N3CCC(CCNS(N)(=O)=O)CC3)ncnc2N(C)C1=O
inhibition [2]: 62%

CN1Cc2c(-c3ccc(CNS(N)(=O)=O)cc3)ccnc2NC1=O
IC50 [1]: 389 nM
inhibition [2]: 100%

NS(=O)(=O)NCc1ccc(-c2ccnc3c2CN(Cc2ccccc2)C(=O)N3)cc1
inhibition [2]: 9%

CN1Cc2c(ncnc2N2CCC(NS(N)(=O)=O)CC2)NC1=O
IC50 [1]: 759 nM
inhibition [2]: 93%

NS(=O)(=O)NCc1cccc(-c2ccnc3c2CNC(=O)N3)c1
inhibition [2]: 20%

CN1Cc2c(-c3cccc(CNS(N)(=O)=O)c3)ccnc2NC1=O
IC50 [1]: 525 nM
inhibition [2]: 96%

CN1Cc2c(ncnc2-c2ccc(CNS(N)(=O)=O)cc2)NC1=O
IC50 [1]: 452 nM
inhibition [2]: 97%

CN1Cc2c(ncnc2-c2cccc(NS(N)(=O)=O)c2)NC1=O
IC50 [1]: 360 nM
inhibition [2]: 100%

CN1Cc2c(ncnc2N2CCC(C)(NS(N)(=O)=O)CC2)NC1=O
IC50 [1]: 236 nM
inhibition [2]: 98%

CN1Cc2c(NCc3ccc(NS(N)(=O)=O)cc3)ncnc2NC1=O
IC50 [1]: 45 nM
inhibition [2]: 100%

CN1Cc2c(ncnc2-c2cccc(CNS(C)(=O)=O)c2)NC1=O
inhibition [2]: 30%

CN1Cc2c(-c3ccc(CNS(N)(=O)=O)c(F)c3)ccnc2NC1=O
activity at 10 µM (CYP1A2): > 100%
remaining at 0.5 h, 1 µM [3]: 86.7%
remaining at 0.5 h, 1 µM [4]: 91.1%
IC50 [1]: 32.3 nM
activity at 10 µM (CYP2D6): > 100%
remaining at 0.5 h, 1 µM [5]: 86.9%
inhibition [2]: 99%
activity at 10 µM (CYP2C9): > 100%
activity at 10 µM (CYP3A4): > 100%
activity at 10 µM (CYP2C19): > 100%

CN1Cc2c(-c3ccc(CNS(N)(=O)=O)cc3)ccnc2N(Cc2ccccc2)C1=O
inhibition [2]: 0%

Cc1ccc(S(=O)(=O)NCc2cccc(-c3ccnc4c3CN(C)C(=O)N4)c2)cc1
inhibition [2]: 4%

CN1Cc2c(ncnc2N2CCC3(CC2)CCN(S(N)(=O)=O)C3)NC1=O
IC50 [1]: 164 nM
inhibition [2]: 100%

CN1Cc2c(-c3ccc(CNS(N)(=O)=O)cc3)ccnc2N(C)C1=O
IC50 [1]: 326 nM
inhibition [2]: 96%

CN1Cc2c(ncnc2N2CCC(C)(CNS(N)(=O)=O)CC2)NC1=O
activity at 10 µM (CYP1A2): 94.3%
remaining at 0.5 h, 1 µM [3]: 82.3%
remaining at 0.5 h, 1 µM [4]: 96.4%
IC50 [1]: 3.7 nM
activity at 10 µM (CYP2D6): 90.9%
remaining at 0.5 h, 1 µM [5]: 85.9%
inhibition [2]: 100%
activity at 10 µM (CYP2C9): 89.4%
activity at 10 µM (CYP3A4): 89.7%
activity at 10 µM (CYP2C19): > 100%

CN1Cc2c(ncnc2-c2cccc(CNS(N)(=O)=O)c2)NC1=O
IC50 [1]: 171 nM
inhibition [2]: 99%

CN1Cc2c(ncnc2N2CCC(CCNS(N)(=O)=O)CC2)NC1=O
IC50 [1]: 773 nM
inhibition [2]: 96%

CN1Cc2c(-c3cccc(CNS(C)(=O)=O)c3)ccnc2NC1=O
inhibition [2]: 15%
